Results published in US20120004244A1, “Bis Aromatic Compounds for Use as LTC4 Synthase Inhibitors” (BIOLIPOX AB, priority 2009, published 2012).

Molecular target: T1, Recombinant human LTC4 synthase (Homo sapiens, UniProt Q16873)
T1 construct: made in house; host or cells: Pichia pastoris ('Piccia pastoralis' [sic])
T1 sequence (Q16873 1-150): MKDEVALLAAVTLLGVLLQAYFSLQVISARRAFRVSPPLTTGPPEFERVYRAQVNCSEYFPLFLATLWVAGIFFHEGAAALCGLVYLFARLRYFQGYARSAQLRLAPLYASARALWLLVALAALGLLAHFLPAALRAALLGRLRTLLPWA
Experiment: LTC4 synthase in vitro assay (LTA4 to LTC4, HTRF detection)
Type: biochemical
Details: for inhibition at 10 µM: 5 min, total concentration of title compound in the assay 10 μM
Experimental: In the assay, LTC4 synthase catalyses the reaction where the substrate LTA4 is converted to LTC4. Recombinant human LTC4 synthase is expressed in Piccia pastoralis and the purified enzyme is dissolved in 25 mM tris-buffer pH 7.8 supplemented with 0.1 mM glutathione (GSH) and stored at −80° C. The assay is performed in phosphate buffered saline (PBS) pH 7.4 and 5 mM GSH in 384-well plates.
The following is added chronologically to each well:
1.48 μL LTC4 synthase in PBS with 5 mM GSH. The total protein concentration in this solution is 0.5 μg/mL. 2. 1 μL inhibitor in DMSO (final concentration 10 μM). 3. Incubation of the plate at room temperature for 10 min. 4. 1 μL LTA4 (final concentration 2.5 μM). 5. Incubation of the plate at room temperature for 5 min. 6. 10 μL of the incubation mixture is analysed using homogenous time resolved fluorescent (HTRF) detection.

Row | Structure (SMILES) | IC50 [µM] | inhibition at 10 µM [%]
1 | CON=C(c1ccc(Oc2ccccc2)c(C(=O)O)c1)c1ccc(N(CC2CC2)c2ccc(Cl)cc2)cn1 (mixture of isomers) [Example 13, 5-({5-[(4-Chlorophenyl)(cyclopropylmethyl)amino]-2-pyridyl}(methoxyimino)-methyl)-2-phenoxybenzoic acid] | 0.242 | 
2 | O=C(O)c1cc(C(=NO)c2ccc(N(CC3CC3)c3ccc(Cl)cc3)cn2)ccc1Oc1ccccc1 (mixture of isomers) [Example 14, 5-({5-[(4-Chlorophenyl)(cyclopropylmethyl)amino]-2-pyridyl}(hydroxyimino)-methyl)-2-phenoxybenzoic acid] | 1.11 | 
3 | CN(c1ccc(Cl)cc1)c1ccc(C(=O)c2ccc(Oc3ccccc3)c(C(=O)O)c2)nc1 [1:1, 5-{5-[(4-Chlorophenyl)(methyl)amino]picolinoyl}-2-phenoxybenzoic acid] | 0.11 | 98
4 | CN(c1ccc(Cl)cc1)c1ccc(C(=O)c2ccc(Oc3ccc(F)c(F)c3)c(C(=O)O)c2)nc1 [1:2, 5-{5-[(4-Chlorophenyl)(methyl)amino]picolinoyl}-2-(3,4-difluorophenoxy)benzoic acid] | 0.104 | 98
5 | CN(c1ccc(Cl)cc1)c1ccc(C(=O)c2ccc(Oc3cccc(Cl)c3)c(C(=O)O)c2)nc1 [1:3, 2-(3-Chlorophenoxy)-5-{5-[(4-chlorophenyl)(methyl)amino]picolinoyl}benzoic acid] | 0.124 | 98
6 | O=C(c1ccc(Oc2ccccc2)c(C(=O)O)c1)c1ccc(N(CC2CC2)c2ccc(Cl)cc2)cn1 [1:4, 5-{5-[(4-Chlorophenyl)(cyclopropylmethyl)amino]picolinoyl}-2-phenoxybenzoic acid] | 0.062 | 100
7 | O=C(c1ccc(Oc2ccccc2)c(C(=O)O)c1)c1ccc(N(CC2CCC2)c2ccc(Cl)cc2)cn1 [1:5, 5-{5-[(4-Chlorophenyl)(cyclobutylmethyl)amino]picolinoyl}-2-phenoxybenzoic acid] | 0.07 | 100
8 | O=C(c1ccc(Oc2ccccc2)c(C(=O)O)c1)c1ccc(N(CC2CCCC2)c2ccc(Cl)cc2)cn1 [1:6, 5-{5-[(4-Chlorophenyl)(cyclopentylmethyl)amino]picolinoyl}-2-phenoxybenzoic acid] | 0.061 | 100
9 | CCOCCN(c1ccc(Cl)cc1)c1ccc(C(=O)c2ccc(Oc3ccccc3)c(C(=O)O)c2)nc1 [1:7, 5-{5-[(4-Chlorophenyl)(2-ethoxyethyl)amino]picolinoyl}-2-phenoxybenzoic acid] | 0.171 | 99
10 | C=CCN(c1ccc(Cl)cc1)c1ccc(C(=O)c2ccc(Oc3ccccc3)c(C(=O)O)c2)nc1 [1:8, 5-{5-[(Allyl)(4-chlorophenyl)amino]picolinoyl}-2-phenoxybenzoic acid] | 0.088 | 100
11 | C#CCN(c1ccc(Cl)cc1)c1ccc(C(=O)c2ccc(Oc3ccccc3)c(C(=O)O)c2)nc1 [1:9, 5-{5-[(4-Chlorophenyl)(2-propynyl)amino]picolinoyl}-2-phenoxybenzoic acid] | 0.048 | 99
12 | N#CCCCN(c1ccc(Cl)cc1)c1ccc(C(=O)c2ccc(Oc3ccccc3)c(C(=O)O)c2)nc1 [1:10, 5-{5-[(4-Chlorophenyl)(3-cyanopropyl)amino]picolinoyl}-2-phenoxybenzoic acid] | 0.433 | 98
13 | CN(c1ccc(C(=O)c2ccc(Oc3ccccc3)c(C(=O)O)c2)nc1)c1cccc(C(F)(F)F)c1 [1:11, 5-{5-[(Methyl)(3-trifluoromethylphenyl)amino]picolinoyl}-2-phenoxybenzoic acid] | 0.176 | 99
14 | CCN(c1ccc(C(=O)c2ccc(Oc3ccccc3)c(C(=O)O)c2)nc1)c1cccc(C(F)(F)F)c1 [1:12, 5-{5-[(Ethyl)(3-trifluoromethylphenyl)amino]picolinoyl}-2-phenoxybenzoic acid] | 0.247 | 100
15 | C=CCN(c1ccc(C(F)(F)F)cc1)c1ccc(C(=O)c2ccc(Oc3ccccc3)c(C(=O)O)c2)nc1 [1:13, 5-{5-[(Allyl)(4-trifluoromethylphenyl)amino]picolinoyl}-2-phenoxybenzoic acid] | 0.29 | 99
16 | O=C(c1ccc(Oc2ccccc2)c(C(=O)O)c1)c1ccc(N(CC2CC2)c2cccc(C(F)(F)F)c2)cn1 [1:14, 5-{5-[(Cyclopropylmethyl)(3-trifluoromethylphenyl)amino]picolinoyl}-2-phenoxybenzoic acid] | 0.197 | 100
17 | CN(c1ccc(C(F)(F)F)cc1)c1ccc(C(=O)c2ccc(Oc3ccccc3)c(C(=O)O)c2)nc1 [1:15, 5-{5-[(Methyl)(4-trifluoromethylphenyl)amino]picolinoyl}-2-phenoxybenzoic acid] | 0.465 | 99

Row | Structure (SMILES) | IC50 [µM] | inhibition at 10 µM [%]
18 | CN(c1ccc(C(=O)c2ccc(Oc3ccccc3)c(C(=O)O)c2)nc1)c1ccc(F)c(F)c1 [1:16, 5-{5-[(3,4-Difluorophenyl)(methyl)amino]picolinoyl}-2-phenoxybenzoic acid] | 0.387 | 98
19 | CN(c1ccc(C(C)(C)C)cc1)c1ccc(C(=O)c2ccc(Oc3ccccc3)c(C(=O)O)c2)nc1 [1:17, 5-{5-[(4-tert-Butylphenyl)(methyl)amino]picolinoyl}-2-phenoxybenzoic acid] | 1.31 | 96
20 | O=C(c1ccc(Oc2ccccc2)c(C(=O)O)c1)c1ccc(N(CC2CC2)c2ccc(C(F)(F)F)cc2)cn1 [1:18, 5-{5-[(Cycloropylmethyl)(4-trifluoromethylphenyl)amino]picolinoyl}-2-phenoxybenzoic acid] | 0.141 | 100
21 | O=C(c1ccc(Oc2ccccc2)c(C(=O)O)c1)c1ccc(N(CC2CC2)c2ccc(F)c(F)c2)cn1 [1:19, 5-{5-[(Cyclopropylmethyl)(3,4-difluorophenyl)amino]picolinoyl}-2-phenoxybenzoic acid] | 0.13 | 100
22 | CC(C)(C)c1ccc(N(CC2CC2)c2ccc(C(=O)c3ccc(Oc4ccccc4)c(C(=O)O)c3)nc2)cc1 [1:20, 5-{5-[(4-tert-Butylphenyl)(cyclopropylmethyl)amino]picolinoyl}-2-phenoxybenzoic acid] | 0.549 | 100
23 | C=CCN(c1ccc(C(=O)c2ccc(Oc3ccccc3)c(C(=O)O)c2)nc1)c1ccc(F)c(F)c1 [1:21, 5-{5-[(Allyl)(3,4-difluorophenyl)amino]picolinoyl}-2-phenoxybenzoic acid] | 0.295 | 99
24 | CCN(c1ccc(C(C)(C)C)cc1)c1ccc(C(=O)c2ccc(Oc3ccccc3)c(C(=O)O)c2)nc1 [1:22, 5-{5-[(4-tert-Butylphenyl)(ethyl)amino]picolinoyl}-2-phenoxybenzoic acid] | 1.24 | 99
25 | CSc1ccccc1Oc1ccc(C(=O)c2ccc(N(C)c3ccc(Cl)cc3)cn2)cc1C(=O)O [1:23, 5-{5-[(4-Chlorophenyl)(methyl)amino]picolinoyl}-2-(2-methylsulfanylphenoxy)benzoic acid] | 0.362 | 100
26 | CN(c1ccc(Cl)cc1)c1ccc(C(=O)c2ccc(Oc3cccnc3)c(C(=O)O)c2)nc1 [1:24, 5-{5-[(4-Chlorophenyl)(methyl)amino]picolinoyl}-2-(3-pyridyloxy)benzoic acid] | 1.14 | 86
27 | COc1ccc(Oc2ccc(C(=O)c3ccc(N(CC4CC4)c4ccc(Cl)cc4)cn3)cc2C(=O)O)cc1 [1:25, 5-{5-[(4-Chlorophenyl)(cyclopropylmethyl)amino]picolinoyl}-2-(4-methoxyphenoxy)benzoic acid] | 0.094 | 
28 | O=C(c1ccc(Oc2ccc(Cl)c(Cl)c2)c(C(=O)O)c1)c1ccc(N(CC2CC2)c2ccc(Cl)cc2)cn1 [1:26, 5-{5-[(4-Chlorophenyl)(cyclopropylmethyl)amino]picolinoyl}-2-(3,4-dichlorophenoxy)benzoic acid] | 0.072 | 
29 | O=C(c1ccc(Oc2ccc(F)cc2)c(C(=O)O)c1)c1ccc(N(CC2CC2)c2ccc(Cl)cc2)cn1 [1:27, 5-{5-[(4-Chlorophenyl)(cyclopropylmethyl)amino]picolinoyl}-2-(4-fluorophenoxy)-benzoic acid] | 0.052 | 
30 | O=C(c1ccc(Oc2ccccc2O)c(C(=O)O)c1)c1ccc(N(CC2CC2)c2ccc(Cl)cc2)cn1 [1:28, 5-{5-[(4-Chlorophenyl)(cyclopropylmethyl)amino]picolinoyl}-2-(2-hydroxyphenoxy)benzoic acid] | 0.044 | 
31 | O=C(c1ccc(Oc2ccccc2)c(C(=O)O)c1)c1ccc(Nc2ccc(Cl)cc2)cn1 [1:29, 5-[5-(4-Chlorophenylamino)picolinoyl]-2-phenoxybenzoic acid] | 0.282 | 
32 | COc1cccc(Oc2ccc(C(=O)c3ccc(N(CC4CC4)c4ccc(Cl)cc4)cn3)cc2C(=O)O)c1 [1:30, 5-{5-[(4-Chlorophenyl)(cyclopropylmethyl)amino]picolinoyl}-2-(3-methoxyphenoxy)benzoic acid] | 0.158 | 
33 | O=C(c1ccc(Oc2ccc3c(c2)OCO3)c(C(=O)O)c1)c1ccc(N(CC2CC2)c2ccc(Cl)cc2)cn1 [1:31, 5-{5-[(4-Chlorophenyl)(cyclopropylmethyl)amino]picolinoyl}-2-(3,4-methylenedioxyphenoxy)benzoic acid] | 0.142 | 
